In the supplement of paper PMC11061612:

Legend:
Assay in all cases: Bliss excess, mean over the matrix (fraction); higher = more synergy
A673 (Ewing's Sarcoma) = test system: A673 (Ewing's Sarcoma)
Procedure, shortened: (§1)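 Cell lines grown in DMEM/F12 or RPMI with 10% FBS were plated in 1536-well plates and held 24 hours at 37°C, 5% CO2 before 72 hours of exposure to two-drug dose matrices, with DMSO typically at 0.2%. CellTiter-Glo 2.0 luminescence gave viability, which was converted to inhibition. Vehicle wells were set to 0 and blank wells to 1. Combination Emax is the second-highest inhibition in the matrix, and Bliss excess is the observed combination effect minus the expected EA + EB − EA·EB, where EA and EB are the single-agent effects.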

[1] = test system: BFTC-909 (Kidney Carcinoma)
Procedure, shortened: as §1

[2] = test system: ESS-1 (Other Solid Carcinomas)
Procedure, shortened: as §1

[3] = test system: HH (T-Cell Non-Hodgkin's Lymphoma)
Procedure, shortened: as §1

[4] = test system: HuCCT1 (Biliary Tract Carcinoma)
Procedure, shortened: as §1

[5] = test system: KYAE-1 (Esophageal Adenocarcinoma)
Procedure, shortened: as §1

LOXIMVI (Melanoma) = test system: LOXIMVI (Melanoma)
Procedure, shortened: as §1

MPP-89 (Mesothelioma) = test system: MPP-89 (Mesothelioma)
Procedure, shortened: as §1

NCI-H2052 (Mesothelioma) = test system: NCI-H2052 (Mesothelioma)
Procedure, shortened: as §1

[6] = test system: OVCAR-5 (Ovarian Carcinoma)
Procedure, shortened: as §1

[7] = test system: SAS (Oral Cavity Carcinoma)
Procedure, shortened: as §1

[8] = test system: SW1710 (Bladder Carcinoma)
Procedure, shortened: as §1

[9] = test system: WSU-NHL (B-Cell Non-Hodgkin's Lymphoma)
Procedure, shortened: as §1

[10] = test system: ALL-PO (B-Lymphoblastic Leukemia)
Procedure, shortened: as §1

BPH-1 (Non-Cancerous) = test system: BPH-1 (Non-Cancerous)
Procedure, shortened: as §1

Row | SMILES | Bliss excess (A673 (Ewing's Sarcoma)) | Bliss excess [1] | Bliss excess [2] | Bliss excess [3] | Bliss excess [4] | Bliss excess [5] | Bliss excess (LOXIMVI (Melanoma)) | Bliss excess (MPP-89 (Mesothelioma)) | Bliss excess (NCI-H2052 (Mesothelioma)) | Bliss excess [6] | Bliss excess [7] | Bliss excess [8] | Bliss excess [9] | Bliss excess [10] | Bliss excess (BPH-1 (Non-Cancerous))
1 | CS(=O)(=O)CCNCc1ccc(-c2ccc3ncnc(Nc4ccc(OCc5cccc(F)c5)c(Cl)c4)c3c2)o1 [Lapatinib] + NC1(c2ccc(-c3nc4ccn5c(=O)[nH]nc5c4cc3-c3ccccc3)cc2)CCC1 [MK-2206] (first compound max 10 µM, 7x7, partner max 10 µM) | -0.064 | -0.0279 | 0.005 | -0.0002 | -0.018 | 0.0176 | 0.043 | -0.0391 | -0.0143 | -0.0101 | 0.0044 | -0.0417 | -0.0237 | – | –
2 | C[C@@H](Oc1cc(-c2cnn(C3CCNCC3)c2)cnc1N)c1c(Cl)ccc(F)c1Cl [Crizotinib] + CC1=C(C(=CC=C1)Cl)NC(=O)C2=CN=C(S2)NC3=CC(=NC(=N3)C)N4CCN(CC4)CCO [Dasatinib] (first compound max 10 µM, 7x7, partner max 2 µM) | -0.0281 | – | 0.062 | -0.0138 | -0.0274 | 0 | 0.0145 | 0.0389 | – | 0.0338 | -0.0059 | 0.031 | 0.0202 | – | –
3 | CCc1c2c(nc3ccc(O)cc13)-c1cc3c(c(=O)n1C2)COC(=O)[C@]3(O)CC [SN-38] + O=C(c1cc(Cc2n[nH]c(=O)c3ccccc23)ccc1F)N1CCN(C(=O)C2CC2)CC1 [Olaparib] (first compound max 0.3 µM, 7x7, partner max 10 µM) | 0.0875 | 0.0897 | 0.0735 | -0.0275 | 0.0046 | -0.0184 | 0.0214 | 0.0504 | – | -0.0161 | 0.0501 | 0.037 | 0.044 | 0.0576 | 0.0501
4 | Cc1c2c(nn1C)CSCc1cc(n(C)n1)CSc1cc(c3ccccc3c1)OCCCc1c(C(=O)O)n(C)c3c-2c(Cl)ccc13 [AZD5991] + CS(=O)(=O)CCNCc1ccc(-c2ccc3ncnc(Nc4ccc(OCc5cccc(F)c5)c(Cl)c4)c3c2)o1 [Lapatinib] (first compound max 1 µM, 7x7, partner max 10 µM) | 0.0006 | – | 0.0292 | -0.0635 | 0.0065 | 0.0569 | 0.017 | -0.0088 | – | -0.0071 | -0.0208 | -0.0639 | -0.0347 | – | –
5 | C=CCn1c(=O)c2cnc(Nc3ccc(N4CCN(C)CC4)cc3)nc2n1-c1cccc(C(C)(C)O)n1 [AZD1775] + Nc1ccn([C@@H]2O[C@H](CO)[C@@H](O)C2(F)F)c(=O)n1 [Gemcitabine] (first compound max 1 µM, partner max 0.3 µM) | 0.039 | – | 0.0774 | -0.0316 | 0.0536 | – | -0.0118 | 0.0505 | – | 0.0364 | 0.0585 | 0.0838 | -0.0035 | – | –
6 | C=CCn1c(=O)c2cnc(Nc3ccc(N4CCN(C)CC4)cc3)nc2n1-c1cccc(C(C)(C)O)n1 [AZD1775] + CCc1c2c(nc3ccc(O)cc13)-c1cc3c(c(=O)n1C2)COC(=O)[C@]3(O)CC [SN-38] (first compound max 1 µM, partner max 0.3 µM) | -0.0188 | – | -0.0011 | -0.0696 | -0.0281 | -0.0013 | -0.0862 | 0.0163 | – | -0.0215 | 0.0334 | 0.0053 | -0.0306 | – | –
7 | O=C(c1cc(Cc2n[nH]c(=O)c3ccccc23)ccc1F)N1CCN(C(=O)C2CC2)CC1 [Olaparib] + COc1nnc2ccc(N3CCC(c4ccc(OCCN5CCN(C)C(=O)[C@H]5C)cc4)CC3)nn12 [AZD5153] (first compound max 10 µM, 7x7, partner max 1 µM) | -0.077 | – | -0.0139 | -0.0066 | -0.0637 | -0.0202 | -0.0792 | -0.0489 | – | -0.0584 | -0.0771 | 0.0021 | -0.06 | – | –
8 | Cc1nc(-c2cn3c(n2)-c2ccc(-c4cnn(C(C)(C)C(N)=O)c4)cc2OCC3)n(C(C)C)n1 [Taselisib] + O=C(Nc1ccc2[nH]nc(-c3ccncc3)c2c1)[C@@H]1CCN(CC(=O)N2CCN(c3ccc(-c4ncccn4)cc3)CC2)C1 [SCH772984] (first compound max 10 µM, 7x7, partner max 5 µM) | 0.131 | – | 0.0682 | 0.0858 | 0.072 | -0.0018 | 0.091 | 0.0373 | – | 0.0022 | 0.0999 | -0.0048 | 0.037 | – | –
9 | O=C(c1cc(Cc2n[nH]c(=O)c3ccccc23)ccc1F)N1CCN(C(=O)C2CC2)CC1 [Olaparib] + Cc1c2c(nn1C)CSCc1cc(n(C)n1)CSc1cc(c3ccccc3c1)OCCCc1c(C(=O)O)n(C)c3c-2c(Cl)ccc13 [AZD5991] (first compound max 10 µM, 7x7, partner max 1 µM) | -0.0566 | – | -0.0255 | -0.0339 | -0.0367 | 0.0031 | -0.0409 | -0.0586 | – | -0.0729 | -0.0344 | -0.0476 | 0.0217 | – | –
10 | CS(=O)(=O)CCNCc1ccc(-c2ccc3ncnc(Nc4ccc(OCc5cccc(F)c5)c(Cl)c4)c3c2)o1 [Lapatinib] + Cn1cnc2c(F)c(Nc3ccc(Br)cc3Cl)c(C(=O)NOCCO)cc21 [Selumetinib] (first compound max 10 µM, 7x7, partner max 10 µM) | -0.039 | – | -0.0075 | -0.0496 | 0.0208 | 0.0206 | -0.0701 | -0.0065 | – | -0.0161 | -0.049 | -0.0077 | -0.0093 | – | –
11 | CC1(C)CCC(CN2CCN(c3ccc(C(=O)NS(=O)(=O)c4ccc(NCC5CCOCC5)c([N+](=O)[O-])c4)c(Oc4cnc5[nH]ccc5c4)c3)CC2)=C(c2ccc(Cl)cc2)C1 [Venetoclax] + CS(=O)(=O)CCNCc1ccc(-c2ccc3ncnc(Nc4ccc(OCc5cccc(F)c5)c(Cl)c4)c3c2)o1 [Lapatinib] (first compound max 1 µM, 7x7, partner max 10 µM) | -0.0426 | – | 0.0298 | -0.0178 | -0.0803 | 0.0085 | 0.007 | -0.0532 | – | -0.0479 | -0.059 | -0.0415 | 0.0482 | – | –
12 | Cc1c2c(nn1C)CSCc1cc(n(C)n1)CSc1cc(c3ccccc3c1)OCCCc1c(C(=O)O)n(C)c3c-2c(Cl)ccc13 [AZD5991] + Nc1ccn([C@@H]2O[C@H](CO)[C@@H](O)C2(F)F)c(=O)n1 [Gemcitabine] (first compound max 1 µM, 7x7, partner max 0.3 µM) | -0.021 | – | -0.0338 | -0.0369 | -0.0171 | 0.0034 | -0.0338 | -0.0354 | – | -0.0442 | -0.0223 | -0.0571 | -0.0514 | – | –
13 | O=C(c1cc(Cc2n[nH]c(=O)c3ccccc23)ccc1F)N1CCN(C(=O)C2CC2)CC1 [Olaparib] + CN(CC[C@H](CSC1=CC=CC=C1)NC2=C(C=C(C=C2)S(=O)(=O)NC(=O)C3=CC=C(C=C3)N4CCC(CC4)[C@H](C5=CC=CC=C5C6=CC=C(C=C6)Cl)O)S(=O)(=O)C(F)(F)F)CCO [AZD4320] (first compound max 10 µM, 7x7, partner max 1 µM) | 0.0265 | – | 0.0825 | -0.0133 | -0.0518 | 0.0363 | 0.0022 | -0.0662 | – | -0.0414 | -0.0318 | -0.0397 | 0.0345 | – | –
14 | C[C@@H]1COCCN1c1cc(C2([S@](C)(=N)=O)CC2)nc(-c2ccnc3[nH]ccc23)n1 [AZD6738] + C1CC(C1)(C(=O)[O-])C(=O)[O-].N.N.[Pt+2] [Carboplatin] (first compound max 10 µM, 7x7, partner max 10 µM) | 0.0216 | – | 0.0196 | -0.0016 | -0.0477 | -0.015 | -0.0438 | -0.035 | – | -0.0347 | -0.0459 | -0.0642 | -0.054 | – | –
15 | C[C@@H]1COCCN1c1cc(C2([S@](C)(=N)=O)CC2)nc(-c2ccnc3[nH]ccc23)n1 [AZD6738] + Nc1ccn([C@@H]2O[C@H](CO)[C@@H](O)C2(F)F)c(=O)n1 [Gemcitabine] (first compound max 10 µM, 7x7, partner max 0.3 µM) | 0.0144 | – | 0.0734 | 0.0778 | 0.0144 | -0.0077 | 0.0221 | 0.0348 | – | -0.0407 | 0.0762 | 0.0769 | 0.014 | – | –
16 | C[C@@H](Oc1cc(-c2cnn(C3CCNCC3)c2)cnc1N)c1c(Cl)ccc(F)c1Cl [Crizotinib] + Cn1cnc2c(F)c(Nc3ccc(Br)cc3Cl)c(C(=O)NOCCO)cc21 [Selumetinib] (first compound max 10 µM, 7x7, partner max 10 µM) | -0.0206 | – | -0.0634 | -0.0238 | -0.0516 | -0.0153 | -0.0068 | -0.0078 | – | -0.0324 | -0.0073 | -0.0956 | -0.0382 | – | –
17 | O=C(c1cc(Cc2n[nH]c(=O)c3ccccc23)ccc1F)N1CCN(C(=O)C2CC2)CC1 [Olaparib] + CC1(C)CCC(CN2CCN(c3ccc(C(=O)NS(=O)(=O)c4ccc(NCC5CCOCC5)c([N+](=O)[O-])c4)c(Oc4cnc5[nH]ccc5c4)c3)CC2)=C(c2ccc(Cl)cc2)C1 [Venetoclax] (first compound max 10 µM, 7x7, partner max 1 µM) | 0.0169 | – | -0.0103 | -0.0246 | -0.0478 | -0.0116 | 0.0029 | -0.0605 | – | -0.061 | -0.0168 | -0.0606 | 0.0238 | – | –
18 | C[C@@H](Nc1cc(F)cc(F)c1)c1cc(C(=O)N(C)C)cc2c(=O)cc(N3CCOCC3)oc12 [AZD8186] + CC(=O)c1c(C)c2cnc(Nc3ccc(N4CCNCC4)cn3)nc2n(C2CCCC2)c1=O [Palbociclib] (first compound max 10 µM, 7x7, partner max 10 µM) | 0.0743 | – | -0.0114 | 0.0853 | 0.0428 | -0.0036 | 0.0909 | -0.0317 | – | 0.0014 | -0.0006 | 0.0531 | -0.0144 | – | –
